Reference: patent US20250034135A1, “ANTI-APOPTOTIC PROTEIN BCL-2 INHIBITOR, PHARMACEUTICAL COMPOSITION AND USES THEREOF” (HANGZHOU HEALZEN THERAPEUTICS CO., LTD., priority 2021, published 2025)
Where two headings read alike, the source gives them in different places.

Key:
RS4; 11 cells = assay: Tumor proliferation inhibitory activity test (MTS) on RS4; 11; type: cell-based; details: Homo sapiens, RS4-11, 72 h, 3 days incubation
Method: The cell proliferation inhibitory ability of the compounds on RS4; 11 was tested using the MTS method. MTS is a tetrazolium blue salt compound that can be reduced by various dehydrogenases in live cell mitochondria to their respective colored methylzan products. Its color depth is highly correlated with the number of live cells in certain sensitive cell lines within a certain range. RS4; 11, RS4; 11 (BCL-2-G101V) and MOLT-4 tumor cells were cultivated separately and collected, 180 μL of cell suspension was added to each well in a 96-well cell plate, 20 μL of DMSO with a final concentration of 0.2% was added to the control cell wells, 20 μL of gradient diluted compounds were added to cell wells, and the treated cells were incubated in a 5% CO2 incubator at 37° C. for 3 days. After the incubation was completed, the reaction solution was prepared according to the MTS reagent kit, 20 μL was added per well and incubated in a 5% CO2 incubator at 37° C. for 3-4 hours. The absorbance value at 490 nm was read using an enzyme-linked immunosorbent assay (ELISA) plate, and the absorbance value at 690 nm was used as the background value, with OD490 nm-OD690 nm as the final raw data. The formula for calculating the inhibition ratio of compounds was as follows: inhibition ratio=(ODDMSO−ODCompound)/(ODDMSO−ODblank)×100%.

BCL2 (G101V) = BCL2 (G101V) (Homo sapiens (Human), UniProt P10415, G101V); assay: Molecular level activity test of anti-apoptotic protein BCL2 (G101V) (HTRF, binding to Bim peptide); details: inhibition of BCL2 (G101V) binding to Bim peptide, read-out: BCL-2 (G101V)
Method: The detection of the binding ability between anti-apoptotic protein BCL2 (G101V) and pro-apoptotic protein Bim was performed using Homogeneous Time-Resolved Fluorescence technology. The reaction of this method occurred in a white shallow 384-well plate, with a total reaction volume of 10 μL. Specifically, it included 2 μL of the compound to be tested (2% DMSO), 4 μL His-tagged recombinant protein, and 4 μL Biotin-tagged BIM protein peptide. After 1 hour of reaction, […] of each Anti-His and streptavidin-tagged XL665 antibody diluents diluted with a detection buffer were added. After incubating at room temperature for 4 hours, the values were read using the Envision multifunctional microplate reader to detect the effect of the compound to be tested on the binding ability of BCL2 (G101V) to BIM protein peptides.

BCL-XL = BCL-XL (Homo sapiens (Human), UniProt Q07817); assay: BCL-XL enzyme molecular level activity test (HTRF, binding to BIM peptide); details: binding of BCL-XL to BIM peptide, read-out: BCL-XL inhibitory activity (IC50)
Chain of BCL-XL (Q07817 whole entry): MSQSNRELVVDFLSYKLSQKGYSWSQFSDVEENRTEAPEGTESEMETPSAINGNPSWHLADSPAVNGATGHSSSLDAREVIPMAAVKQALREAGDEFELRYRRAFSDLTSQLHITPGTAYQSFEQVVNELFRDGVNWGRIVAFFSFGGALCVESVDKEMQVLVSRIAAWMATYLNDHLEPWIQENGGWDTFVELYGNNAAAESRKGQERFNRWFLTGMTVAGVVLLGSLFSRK
Method: In a white shallow 384-well plate, a total reaction volume was 10 μL. Specifically, it included 2 μL of the compound to be tested (2% DMSO), […] His-tagged recombinant protein, and 4 μL Biotin-tagged BIM protein peptide. After 1 hour of reaction, 5 μL of each Anti-His and streptavidin-tagged XL665 antibody diluents diluted with a detection buffer were added. After incubating at room temperature for 4 hours, the values were read using the Envision multifunctional microplate reader to detect the effect of the compound to be tested on the binding ability of BCL-XL to BIM protein peptides. The Envision parameter settings were exciting light at 320 nm, and emitting light at 615 nm and 665 nm. The binding ability of anti-apoptotic proteins to Bim protein peptides was indirectly reflected by the signal ratio of 665 nm and 615 nm. In the reaction, background wells without BCL2 and active wells for full binding of recombinant proteins without compounds and Bim protein peptides were set up.

BCL2 = BCL2 (Homo sapiens (Human), UniProt P10415); assay: Molecular level activity test of anti-apoptotic protein BCL2 (HTRF, binding to Bim peptide); details: HTRF, binding of BCL2 to Bim peptide; read-out: BCL2 nM (inhibitory activity, IC50)
Outline: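 Signal comes from proximity of anti-His-labelled BCL2 and streptavidin-XL665-bound biotin-BIM peptide. Test compounds, added in 2% DMSO, were preincubated with protein and peptide for one hour; detection reagents then incubated four hours at room temperature before reading.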

## CC(C)c1ccccc1[C@@H]1CN(Cc2cnn(C)c2)CCN1C1CC2(CCN(c3cc(Oc4cnc5[nH]ccc5c4)c(C(=O)NS(=O)(=O)c4ccc(NC[C@H]5CC[C@](C)(O)CC5)c([N+](=O)[O-])c4)cc3F)CC2)C1 [compound 238, 2-((1H-pyrrolo[2,3-b]pyrid-5-yl)oxy)-5-fluoro-N-((4-((((1r, 4r)-4-hydroxy-4-methylcyclohexyl)methyl)amino)-3-nitrophenyl)sulfonyl)-4-(2-((R)-2-(2-isopropylphenyl)-4-((1-methyl-1H-pyrazole-4-yl)methyl)piperazin-1-yl)-7-azaspiro[3.5]non-7-yl)benzamide]
RS4; 11 cells
  IC50: 0.5 to 1 nM

## CC(C)c1ccccc1[C@@H]1CN(Cc2ccc3c(c2)OCO3)CCN1C1CC2(CCN(c3cc(Oc4cnc5[nH]ccc5c4)c(C(=O)NS(=O)(=O)c4ccc(NCC5(F)CCOCC5)c([N+](=O)[O-])c4)cc3F)CC2)C1 [compound 203, (R)-2-((1H-pyrrolo[2,3-b]pyrid-5-yl)oxy)-4-(2-(4-(benzo[d][1,3]dioxocyclopent-5-ylmethyl)-2-(2-isopropylphenyl)piperazin-1-yl)-7-azaspiro[3.5]non-7-yl)-5-fluoro-N-((4-(((4-fluorotetrahydro-2H-pyran-4-yl)methyl)amino)-3-nitrophenyl)sulfonyl)benzamide]
BCL2 (G101V)
  IC50: < 10 nM
BCL-XL; values in nM
  IC50: > 500 nM
BCL2
  IC50: < 10 nM

## COc1ccc(CN2CCN(C3CC4(CCN(c5cc(Oc6cnc7[nH]cc(F)c7c6)c(C(=O)NS(=O)(=O)c6ccc(NCC7(F)CCN(C(C)C)CC7)c([N+](=O)[O-])c6)cc5F)CC4)C3)C(c3ccccc3C(C)C)C2)cc1 (centres unmarked) [compound 062]
BCL2 (G101V)
  IC50: < 10 nM
BCL-XL; values given in μM
  IC50: > 1000 nM
BCL2
  IC50: < 10 nM

## COc1cccc(CN2CCN(C3CC4(CCN(c5cc(Oc6cnc7[nH]ccc7c6)c(C(=O)NS(=O)(=O)c6ccc(NCC7(F)CCOCC7)c([N+](=O)[O-])c6)cc5F)CC4)C3)[C@H](c3ccccc3C(C)C)C2)c1 [compound 184, (R)-2-((1H-pyrrolo[2,3-b]pyrid-5-yl)oxy)-5-fluoro-N-((4-(((4-fluorotetrahydro-2H-pyran-4-yl)methyl)amino)-3-nitrophenyl)sulfonyl)-4-(2-(2-(2-isopropylphenyl)-4-(3-methoxybenzyl)piperazin-1-yl)-7-azaspiro[3.5]non-7-yl)benzamide]
BCL2 (G101V)
  IC50: < 10 nM
BCL-XL; values in nM
  IC50: > 500 nM
BCL2
  IC50: < 10 nM

## CC(C)c1ccccc1[C@@H]1CN(Cc2ccc(F)cc2)CCN1C1CC2(CCN(c3cc(Oc4cnc5[nH]ccc5c4)c(C(=O)NS(=O)(=O)c4ccc(NCC5(F)CCOCC5)c([N+](=O)[O-])c4)cc3F)CC2)C1 [compound 186, (R)-2-((1H-pyrrolo[2,3-b]pyrid-5-yl)oxy)-5-fluoro-4-(2-(4-(4-fluorobenzyl)-2-(2-isopropylphenyl)piperazin-1-yl)-7-azaspiro[3.5]non-7-yl)-N-((4-(((4-fluorotetrahydro-2H-pyran-4-yl)methyl)amino)-3-nitrophenyl)sulfonyl)benzamide]
BCL2 (G101V)
  IC50: < 10 nM
BCL-XL; values in nM
  IC50: > 500 nM
BCL2
  IC50: < 10 nM

## CC(C)c1ccccc1[C@@H]1CN(Cc2cccc3c2OCO3)CCN1C1CC2(CCN(c3cc(Oc4cnc5[nH]ccc5c4)c(C(=O)NS(=O)(=O)c4ccc(NCC5(F)CCOCC5)c([N+](=O)[O-])c4)cc3F)CC2)C1 [compound 204, (R)-2-((1H-pyrrolo[2,3-b]pyrid-5-yl)oxy)-4-(2-(4-(benzo[d][1,3]dioxocyclopent-4-ylmethyl)-2-(2-isopropylphenyl)piperazin-1-yl)-7-azaspiro[3.5]non-7-yl)-5-fluoro-N-((4-(((4-fluorotetrahydro-2H-pyran-4-yl)methyl)amino)-3-nitrophenyl)sulfonyl)benzamide]
BCL-XL; values in nM
  IC50: > 500 nM
BCL2
  IC50: < 10 nM

## CC(C)c1ccccc1[C@@H]1CN(Cc2ccc3c(c2)OCCO3)CCN1C1CC2(CCN(c3cc(Oc4cnc5[nH]ccc5c4)c(C(=O)NS(=O)(=O)c4ccc(NCC5(F)CCOCC5)c([N+](=O)[O-])c4)cc3F)CC2)C1 [compound 207, (R)-2-((1H-pyrrolo[2,3-b]pyrid-5-yl)oxy)-4-(2-(4-((2,3-dihydrobenzo[b][1,4]dioxane-6-yl)methyl)-2-(2-isopropylphenyl)piperazin-1-yl)-7-azaspiro[3.5]non-7-yl)-5-fluoro-N-((4-(((4-fluorotetrahydro-2H-pyran-4-yl)methyl)amino)-3-nitrophenyl)sulfonyl)benzamide]
BCL-XL; values in nM
  IC50: > 500 nM
BCL2
  IC50: < 10 nM

## CC(C)c1ccccc1[C@@H]1CN(Cc2cccc3c2OCCO3)CCN1C1CC2(CCN(c3cc(Oc4cnc5[nH]ccc5c4)c(C(=O)NS(=O)(=O)c4ccc(NC[C@H]5CC[C@](C)(O)CC5)c([N+](=O)[O-])c4)cc3F)CC2)C1 [compound 227, 2-((1H-pyrrolo[2,3-b]pyrid-5-yl)oxy)-4-(2-((R)-4-((2,3-dihydrobenzo[b][1,4]dioxane-5-yl)methyl)-2-(2-isopropylphenyl)piperazin-1-yl)-7-azaspiro[3.5]non-7-yl)-5-fluoro-N-((4-((((1r, 4r)-4-hydroxy-4-methylcyclohexyl)methyl)amino)-3-nitrophenyl)sulfonyl)benzamide]
BCL-XL; values in nM
  IC50: > 500 nM
BCL2
  IC50: < 10 nM

## COc1ccc(CN2CCN(C3CC4(CCN(c5cc(Oc6cnc7[nH]ccc7c6)c(C(=O)NS(=O)(=O)c6ccc(NCC7(F)CCOCC7)c([N+](=O)[O-])c6)cc5F)CC4)C3)C(c3ccccc3C(C)C)C2)cc1 (centres unmarked) [compound 066, 2-((1H-pyrrolo[2,3-b]pyrid-5-yl)oxy)-5-fluoro-N-((4-(((4-fluorotetrahydro-2H-pyran-4-yl)methyl)amino)-3-nitrophenyl)sulfonyl)-4-(2-(2-(2-isopropylphenyl)-4-(4-methoxybenzyl)piperazin-1-yl)-7-azaspiro[3.5]non-7-yl)benzamide]
BCL-XL; values in nM
  IC50: > 500 nM
BCL2
  IC50: < 10 nM

## COc1cc(CN2CCN(C3CC4(CCN(c5cc(Oc6cnc7[nH]ccc7c6)c(C(=O)NS(=O)(=O)c6ccc(NCC7(F)CCOCC7)c([N+](=O)[O-])c6)cc5F)CC4)C3)[C@H](c3ccccc3C(C)C)C2)ccc1C1CC1 [compound 196, (R)-2-((1H-pyrrolo[2,3-b]pyrid-5-yl)oxy)-4-(2-(4-(4-cyclopropyl-3-methoxybenzyl)-2-(2-isopropylphenyl)piperazin-1-yl)-7-azaspiro[3.5]non-7-yl)-5-fluoro-N-((4-(((4-fluorotetrahydro-2H-pyran-4-yl)methyl)amino)-3-nitrophenyl)sulfonyl)benzamide]
BCL2 (G101V)
  IC50: < 10 nM
BCL-XL; values in nM
  IC50: > 500 nM
BCL2
  IC50: < 10 nM

## CC(C)c1ccccc1[C@@H]1CN(Cc2ccc3c(c2)OCCO3)CCN1C1CC2(CCN(c3cc(Oc4cnc5[nH]ccc5c4)c(C(=O)NS(=O)(=O)c4ccc(NC[C@H]5CC[C@](C)(O)CC5)c([N+](=O)[O-])c4)cc3F)CC2)C1 [compound 226, 2-((1H-pyrrolo[2,3-b]pyrid-5-yl)oxy)-4-(2-((R)-4-((2,3-dihydrobenzo[b][1,4]dioxane-6-yl)methyl)-2-(2-isopropylphenyl)piperazin-1-yl)-7-azaspiro[3.5]non-7-yl)-5-fluoro-N-((4-((((1r, 4r)-4-hydroxy-4-methylcyclohexyl)methyl)amino)-3-nitrophenyl)sulfonyl)benzamide]
BCL-XL; values in nM
  IC50: > 500 nM
BCL2
  IC50: < 10 nM
